According to the supplement of paper PMC10307832:

Assays:
Assay in all cases: relative viability (nuclei count vs DMSO), 5 days (fraction); higher = more cells survive
201T = system: 201T
Summary of the method: (§1)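 Values are medians from duplicate plates. Each reflects relative viability, defined as the nuclei count of treated wells over that of vehicle wells. Lung cancer cell lines in 1536-well plates were pin-tool dosed one day after seeding with one drug alone or with a fixed anchor-drug dose plus five library-drug doses (not always all listed) in √10 steps, then fixed, stained and imaged at 4× after 5 days.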

COR-L 105 = system: COR-L 105
Summary of the method: as §1

ChaGo-K-1 = system: ChaGo-K-1
Summary of the method: as §1

EKVX = system: EKVX
Summary of the method: as §1

H3255 = system: H3255
Summary of the method: as §1

HARA = system: HARA
Summary of the method: as §1

HCC-827 = system: HCC-827
Summary of the method: as §1

HOP-62 = system: HOP-62
Summary of the method: as §1

LCLC-103H = system: LCLC-103H
Summary of the method: as §1

LOU-NH91 = system: LOU-NH91
Summary of the method: as §1

NCI-H1975 = system: NCI-H1975
Summary of the method: as §1

NCI-H2126 = system: NCI-H2126
Summary of the method: as §1

NCI-H2228 = system: NCI-H2228
Summary of the method: as §1

NCI-H23 = system: NCI-H23
Summary of the method: as §1

NCI-H2405 = system: NCI-H2405
Summary of the method: as §1

NCI-H3122 = system: NCI-H3122
Summary of the method: as §1

NCI-H596 = system: NCI-H596
Summary of the method: as §1

NCI-H650 = system: NCI-H650
Summary of the method: as §1

NCI-H661 = system: NCI-H661
Summary of the method: as §1

NCI-H727 = system: NCI-H727
Summary of the method: as §1

PC-3 [JPC-3] = system: PC-3 [JPC-3]
Summary of the method: as §1

SK-LU-1 = system: SK-LU-1
Summary of the method: as §1

SW 900 = system: SW 900
Summary of the method: as §1

SMILES: Cc1csc(=NC2CCCCC2)n1/N=C/c1ccc(O)c(O)c1O [MIM1] + Cc1cc(Nc2cc(N3CCN(C)CC3)nc(Sc3ccc(NC(=O)C4CC4)cc3)n2)n[nH]1 [Tozasertib] (partner 0.1 µM)
- relative viability (201T; first compound 0.2 µM): 0.956
- relative viability (201T; first compound 0.6325 µM): 1
- relative viability (201T; first compound 2 µM): 0.896
- relative viability (201T; first compound 6.325 µM): 0.504
- relative viability (201T; first compound 20 µM): 0.377
- relative viability (COR-L 105; first compound 0.2 µM): 0.573
- relative viability (COR-L 105; first compound 0.6325 µM): 0.35
- relative viability (COR-L 105; first compound 2 µM): 0.341
- relative viability (COR-L 105; first compound 6.325 µM): 0.354
- relative viability (COR-L 105; first compound 20 µM): 0.338
- relative viability (ChaGo-K-1; first compound 0.2 µM): 0.246
- relative viability (ChaGo-K-1; first compound 0.6325 µM): 0.232
- relative viability (ChaGo-K-1; first compound 2 µM): 0.204
- relative viability (ChaGo-K-1; first compound 6.325 µM): 0.196
- relative viability (ChaGo-K-1; first compound 20 µM): 0.155
- relative viability (EKVX; first compound 0.2 µM): 0.474
- relative viability (EKVX; first compound 0.6325 µM): 0.357
- relative viability (EKVX; first compound 2 µM): 0.355
- relative viability (EKVX; first compound 6.325 µM): 0.28
- relative viability (EKVX; first compound 20 µM): 0.337
- relative viability (H3255; first compound 0.2 µM): 0.526
- relative viability (H3255; first compound 0.6325 µM): 0.54
- relative viability (H3255; first compound 2 µM): 0.601
- relative viability (H3255; first compound 6.325 µM): 0.537
- relative viability (H3255; first compound 20 µM): 0.277
- relative viability (HARA; first compound 0.2 µM): 0.101
- relative viability (HARA; first compound 2 µM): 0.0957
- relative viability (HARA; first compound 6.325 µM): 0.112
- relative viability (HARA; first compound 20 µM): 0.0634
- relative viability (HCC-827; first compound 0.2 µM): 0.43
- relative viability (HCC-827; first compound 0.6325 µM): 0.404
- relative viability (HCC-827; first compound 2 µM): 0.411
- relative viability (HCC-827; first compound 6.325 µM): 0.169
- relative viability (HCC-827; first compound 20 µM): 0.177
- relative viability (HOP-62; first compound 0.2 µM): 0.38
- relative viability (HOP-62; first compound 0.6325 µM): 0.378
- relative viability (HOP-62; first compound 2 µM): 0.298
- relative viability (HOP-62; first compound 6.325 µM): 0.335
- relative viability (HOP-62; first compound 20 µM): 0.184
- relative viability (LCLC-103H; first compound 0.2 µM): 0.609
- relative viability (LCLC-103H; first compound 0.6325 µM): 0.426
- relative viability (LCLC-103H; first compound 2 µM): 0.505
- relative viability (LCLC-103H; first compound 6.325 µM): 0.41
- relative viability (LCLC-103H; first compound 20 µM): 0.268
- relative viability (LOU-NH91; first compound 0.2 µM): 0.65
- relative viability (LOU-NH91; first compound 0.6325 µM): 0.657
- relative viability (LOU-NH91; first compound 2 µM): 0.51
- relative viability (LOU-NH91; first compound 6.325 µM): 0.581
- relative viability (LOU-NH91; first compound 20 µM): 0.225
- relative viability (NCI-H1975; first compound 0.2 µM): 0.643
- relative viability (NCI-H1975; first compound 0.6325 µM): 0.807
- relative viability (NCI-H1975; first compound 2 µM): 0.699
- relative viability (NCI-H1975; first compound 6.325 µM): 0.338
- relative viability (NCI-H1975; first compound 20 µM): 0.254
- relative viability (NCI-H2126; first compound 0.2 µM): 0.831
- relative viability (NCI-H2126; first compound 0.6325 µM): 0.832
- relative viability (NCI-H2126; first compound 2 µM): 0.846
- relative viability (NCI-H2126; first compound 6.325 µM): 0.738
- relative viability (NCI-H2126; first compound 20 µM): 0.403
- relative viability (NCI-H2228; first compound 0.2 µM): 0.257
- relative viability (NCI-H2228; first compound 0.6325 µM): 0.284
- relative viability (NCI-H2228; first compound 2 µM): 0.234
- relative viability (NCI-H2228; first compound 6.325 µM): 0.203
- relative viability (NCI-H2228; first compound 20 µM): 0.123
- relative viability (NCI-H23; first compound 0.2 µM): 0.398
- relative viability (NCI-H23; first compound 2 µM): 0.325
- relative viability (NCI-H23; first compound 6.325 µM): 0.175
- relative viability (NCI-H23; first compound 20 µM): 0.15
- relative viability (NCI-H2405; first compound 0.2 µM): 0.767
- relative viability (NCI-H2405; first compound 0.6325 µM): 0.721
- relative viability (NCI-H2405; first compound 2 µM): 0.682
- relative viability (NCI-H2405; first compound 6.325 µM): 0.549
- relative viability (NCI-H2405; first compound 20 µM): 0.537
- relative viability (NCI-H3122; first compound 0.2 µM): 0.446
- relative viability (NCI-H3122; first compound 0.6325 µM): 0.464
- relative viability (NCI-H3122; first compound 2 µM): 0.366
- relative viability (NCI-H3122; first compound 6.325 µM): 0.155
- relative viability (NCI-H3122; first compound 20 µM): 0.0965
- relative viability (NCI-H596; first compound 0.2 µM): 0.929
- relative viability (NCI-H596; first compound 0.6325 µM): 0.931
- relative viability (NCI-H596; first compound 2 µM): 0.817
- relative viability (NCI-H596; first compound 6.325 µM): 0.872
- relative viability (NCI-H596; first compound 20 µM): 0.782
- relative viability (NCI-H650; first compound 0.2 µM): 0.774
- relative viability (NCI-H650; first compound 0.6325 µM): 0.711
- relative viability (NCI-H650; first compound 2 µM): 0.748
- relative viability (NCI-H650; first compound 6.325 µM): 0.69
- relative viability (NCI-H650; first compound 20 µM): 0.244
- relative viability (NCI-H661; first compound 0.2 µM): 0.35
- relative viability (NCI-H661; first compound 0.6325 µM): 0.367
- relative viability (NCI-H661; first compound 2 µM): 0.361
- relative viability (NCI-H661; first compound 6.325 µM): 0.363
- relative viability (NCI-H661; first compound 20 µM): 0.285
- relative viability (NCI-H727; first compound 0.2 µM): 0.513
- relative viability (NCI-H727; first compound 0.6325 µM): 0.536
- relative viability (NCI-H727; first compound 2 µM): 0.592
- relative viability (NCI-H727; first compound 6.325 µM): 0.574
- relative viability (NCI-H727; first compound 20 µM): 0.506
- relative viability (PC-3 [JPC-3]; first compound 0.2 µM): 0.912
- relative viability (PC-3 [JPC-3]; first compound 0.6325 µM): 0.86
- relative viability (PC-3 [JPC-3]; first compound 2 µM): 0.849
- relative viability (PC-3 [JPC-3]; first compound 6.325 µM): 0.694
- relative viability (PC-3 [JPC-3]; first compound 20 µM): 0.574
- relative viability (SK-LU-1; first compound 0.2 µM): 0.329
- relative viability (SK-LU-1; first compound 0.6325 µM): 0.374
- relative viability (SK-LU-1; first compound 2 µM): 0.393
- relative viability (SK-LU-1; first compound 6.325 µM): 0.273
- relative viability (SK-LU-1; first compound 20 µM): 0.283
- relative viability (SW 900; first compound 0.2 µM): 0.657
- relative viability (SW 900; first compound 0.6325 µM): 0.722
- relative viability (SW 900; first compound 2 µM): 0.495
- relative viability (SW 900; first compound 6.325 µM): 0.528
- relative viability (SW 900; first compound 20 µM): 0.183
